Literature values, collected in patent US20090280177A1, “Pharmaceutical preparation for treating fibromyalgia” (priority 2006, published 2009).

Key:
[1] = tested on: T cell-independent antigen
T cells = conditions: dose-dependent manner
T cell-dependent antigen = conditions: dose-dependent manner
[2] = tested on: peripheral blood-adhesive cells from chronic rheumatoid arthritis patients

For O=C(O)c1cc(/N=N/c2ccc(S(=O)(=O)Nc3ccccn3)cc2)ccc1O [salazosulfapyridine, 2-Hydroroxy-5-[4-(pyridine-2-ylsulfamoyl)phenylazo] benzoic acid], which “immune response to a T cell-independent antigen” value [1] is on record?
The value was “hardly suppressed”.

What about the IL-2 production (T cells) of the same molecule?
The IL-2 production was “suppress”.

And the “immune response to a T cell-dependent antigen” value (T cell-dependent antigen)?
The value was “suppressed”.

What about the “production of IL-1 and IL-6” value [2] of the same molecule?
Its value is “suppress”.
